Our source for the Ki values is patent publication US20070232601A1, “Vla-4 Inhibitor” (priority 2004, published 2007).

The target of the assay is T1, hα4 and β1 integrins (VLA-4) (Homo sapiens, UniProt P05556+P13612).
T1 construct: expressed in transfected cells; host or cells: CHO cells
T1 sequence (P13612 34-1032): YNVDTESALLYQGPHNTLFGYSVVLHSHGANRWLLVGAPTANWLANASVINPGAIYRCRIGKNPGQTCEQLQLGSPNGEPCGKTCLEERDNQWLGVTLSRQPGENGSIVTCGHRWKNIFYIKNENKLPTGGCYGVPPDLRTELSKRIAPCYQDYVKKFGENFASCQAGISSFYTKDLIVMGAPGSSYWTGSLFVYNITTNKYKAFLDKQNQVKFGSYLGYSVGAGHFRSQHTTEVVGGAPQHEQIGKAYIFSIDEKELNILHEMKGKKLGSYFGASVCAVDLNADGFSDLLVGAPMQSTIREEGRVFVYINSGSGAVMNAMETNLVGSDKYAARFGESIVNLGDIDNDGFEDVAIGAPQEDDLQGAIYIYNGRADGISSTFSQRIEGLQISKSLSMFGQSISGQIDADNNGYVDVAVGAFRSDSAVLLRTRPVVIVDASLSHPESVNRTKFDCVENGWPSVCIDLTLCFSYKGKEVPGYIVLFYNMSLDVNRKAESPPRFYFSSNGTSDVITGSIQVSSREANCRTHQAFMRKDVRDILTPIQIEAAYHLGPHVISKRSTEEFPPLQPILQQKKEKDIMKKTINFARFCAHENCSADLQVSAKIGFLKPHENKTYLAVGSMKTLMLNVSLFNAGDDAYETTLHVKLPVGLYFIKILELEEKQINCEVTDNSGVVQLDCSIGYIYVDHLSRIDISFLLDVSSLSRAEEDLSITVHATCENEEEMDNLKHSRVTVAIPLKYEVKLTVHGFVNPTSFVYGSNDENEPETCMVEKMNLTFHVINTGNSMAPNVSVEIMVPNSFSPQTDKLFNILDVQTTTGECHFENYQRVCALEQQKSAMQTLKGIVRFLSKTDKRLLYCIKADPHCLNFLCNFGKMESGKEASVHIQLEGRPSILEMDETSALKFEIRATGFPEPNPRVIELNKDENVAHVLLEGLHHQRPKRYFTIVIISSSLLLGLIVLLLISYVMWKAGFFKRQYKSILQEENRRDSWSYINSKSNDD
T1 sequence (P05556 21-798): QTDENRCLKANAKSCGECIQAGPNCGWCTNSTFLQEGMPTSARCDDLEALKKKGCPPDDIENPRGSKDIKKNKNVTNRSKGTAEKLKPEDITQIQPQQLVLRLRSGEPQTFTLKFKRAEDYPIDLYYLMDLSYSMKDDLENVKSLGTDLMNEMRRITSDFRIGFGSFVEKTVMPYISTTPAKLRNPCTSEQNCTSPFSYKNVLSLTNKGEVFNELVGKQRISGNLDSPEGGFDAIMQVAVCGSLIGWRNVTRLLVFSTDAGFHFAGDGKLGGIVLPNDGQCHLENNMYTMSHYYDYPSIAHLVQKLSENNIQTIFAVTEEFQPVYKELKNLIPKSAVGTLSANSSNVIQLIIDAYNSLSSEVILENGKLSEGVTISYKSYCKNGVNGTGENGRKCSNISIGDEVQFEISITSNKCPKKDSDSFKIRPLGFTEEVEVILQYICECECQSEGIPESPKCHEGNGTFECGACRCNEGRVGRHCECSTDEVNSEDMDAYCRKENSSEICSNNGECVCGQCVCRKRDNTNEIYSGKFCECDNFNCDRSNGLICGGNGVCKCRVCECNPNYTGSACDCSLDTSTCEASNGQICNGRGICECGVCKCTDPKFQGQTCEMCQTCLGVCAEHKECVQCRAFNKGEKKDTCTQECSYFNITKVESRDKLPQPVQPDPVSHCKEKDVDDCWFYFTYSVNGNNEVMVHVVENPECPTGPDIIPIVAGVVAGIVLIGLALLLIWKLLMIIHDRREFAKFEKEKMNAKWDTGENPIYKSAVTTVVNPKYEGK
As to the kind of experiment: In vitro evaluation: inhibition of binding of CHO cells expressing hα4 and β1 integrins to Eu3+-hVCAM-1 D1D7-IgG. Conditions: ligand Eu3+-hVCAM-1 D1D7-IgG 2 nM, Ki calculated from IC50. As for the experimental part: CHO cells which were forced to be expressed by transduction of hα4 and β1 integrins are seeded (3×10^4 cells/100 μl/well) on a Costar 3599 plate, and cultured for 2 days. A medium is washed with a buffer A* two times, and Eu^3+-hVCAM-1 D1D7-IgG which was diluted with an assay buffer A** to 2 nM is added at 50 μl/well. A test substance which was diluted with 2% DMSO-assay buffer (in the presence or the absence of 6% human serum albumin) is added at 50 μl/well (A solution which was separately diluted is added to a well in which Scatchard analysis is performed), this is stirred with a plate mixer for 5 minutes, and allowed to stand at room temperature for 1 hour. Thereafter, this is washed with a buffer A four times, a potentiating reagent (manufactured by DELFIA) is added at 100 μl/well, this is shaken for 5 minutes using a plate mixer, and a fluorescence intensity is measured with a time-resolved fluorometer (DELFIA Wallac). IC50 (concentration at which binding of CHO cell and Eu^3+-hVCAM-1 D1D7-IgG is inhibited by 50%) of a test substance is obtained from an integration rate obtained from a calculation equation: [(FT−FNS)−(FI−FNS)]/[(FT−FNS)]×100, wherein FT indicates a fluorescence intensity of a well not containing a test substance, FNS indicates a fluorescence intensity of a well not containing a test substance and hVCAM-1 D1D7-IgG, and FI indicates a fluorescence intensity containing a test substance. A Kd value showing strength of binding and Bmax (maximum binding amount) were presumed in a range of 0.06 to 20 nM according to the Scachard analysis method. [formula]
A Ki value was calculated according to the above equation ([L] is ligand concentration)
[* buffer A: 25 mM HEPES (pH 7.5), 150 mM NaCl, 1 mM Ca^2+, 1 mM Mg^2+, 4 mM Mn^2+; ** assay buffer: 25 mM HEPES (pH 7.5), 150 mM NaCl, 1 mM Ca^2+, 1 mM Mg^2+, 4 mM Mn^2+, 0.1% BSA, 20 μM DTPA, with/without 6% ALBUMIN, HUMAN SERUM (C/NA-1653, SIGMA)]
In the case of `O=C(O)CCc1cnc([C@@H]2CCCN2C(=O)Cc2cc(Cl)c(NC(=O)c3csc4ccccc34)cc2F)s1` [Example 29, 3-[2-[1-[4-[(3-Benzo[b]thienylcarbonyl)amino]-5-chloro-2-fluorophenylacetyl]-(2S)-pyrrolidinyl]-5-thiazolyl]propionic acid], the Ki was 0.26 nM.
For `CO[C@H]1C[C@@H](c2cc(CCC(=O)O)on2)N(C(=O)Cc2cc(Cl)c(NC(=O)c3cn(C)c4ccccc34)cc2Cl)C1` [Example 30, 3-[3-[1-[2,5-Dichloro-4-(1-methyl-3-indolylcarbonylamino)phenylacetyl]-(4S)-methoxy-(2S)-pyrrolidinyl]-5-isoxazole]propionic acid], the Ki was 5.8 nM.
Take `CO[C@H]1C[C@@H](c2cc(CCC(=O)O)on2)N(C(=O)Cc2cc(Cl)c(NC(=O)c3cn(C)c4ccccc34)cc2F)C1` [Example 31, 3-[3-[1-[5-Chloro-2-fluoro-4-(1-methyl-3-indolylcarbonyl)aminophenylacetyl]-(4S)-methoxy-(2S)-pyrrolidinyl]-5-isoxazolyl]propionic acid]: the Ki is 5.8 nM.
The figure for `CO[C@H]1C[C@@H](c2cc(CCC(=O)O)on2)N(C(=O)Cc2cc(Cl)c(NC(=O)c3csc4ccccc34)cc2Cl)C1` [Example 32, 3-[3-[1-[[4-[(3-Benzo[b]thienylcarbonyl)amino]-2,5-dichlorophenyl]acetyl]-(4S)-methoxy-(2S)-pyrrolidinyl]-5-isoxazolyl]propionic acid] is 2.1 nM.
Turning to `CO[C@H]1C[C@@H](c2cc(CCC(=O)O)on2)N(C(=O)Cc2cc(Cl)c(NC(=O)c3csc4ccccc34)cc2F)C1` [Example 33, 3-[3-[1-[[4-[(3-Benzo[b]thienylcarbonyl)amino]-5-chloro-2-fluorophenyl]acetyl]-(4S)-methoxy-(2S)-pyrrolidinyl]-5-isoxazolyl]propionic acid], the Ki is 2 nM.
For `CC(C)O[C@H]1C[C@@H](c2ncc(CCC(=O)O)s2)N(C(=O)Cc2cc(Cl)c(NC(=O)c3cn(C)c4ccccc34)cc2Cl)C1` [Example 34, 3-[2-[1-[2,5-Dichloro-4-(1-methyl-3-indolylcarbonylamino)phenylacetyl]-(4S)-isopropoxy-(2S)-pyrrolidinyl]-5-thiazolyl]propionic acid], the Ki was 5.1 nM.
Turning to `CC(C)O[C@H]1C[C@@H](c2ncc(CCC(=O)O)s2)N(C(=O)Cc2cc(Cl)c(NC(=O)c3cn(C)c4ccccc34)cc2F)C1` [Example 35, 3-[2-[1-[5-Chloro-2-fluoro-4-(1-methyl-3-indolylcarbonyl)aminophenylacetyl]-(4S)-isopropoxy-(2S)-pyrrolidinyl]-5-thiazolyl]propionic acid], the inhibition constant Ki was 3 nM.
The figure for `CC(C)O[C@H]1C[C@@H](c2ncc(CCC(=O)O)s2)N(C(=O)Cc2cc(Cl)c(NC(=O)c3coc4ccccc34)cc2Cl)C1` [Example 37, 3-[2-[1-[4-[(1-Benzofuran-3-ylcarbonyl)amino]-2,5-dichlorophenylacetyl]-(4S)-isopropoxy-(2S)-pyrrolidinyl]5-thiazolyl]propionic acid] is 5.9 nM; for `CC(C)O[C@H]1C[C@@H](c2ncc(CCC(=O)O)s2)N(C(=O)Cc2cc(Cl)c(NC(=O)c3coc4ccccc34)cc2F)C1` [Example 38] it is 3.3 nM; for `Cn1cc(C(=O)Nc2cc(Cl)c(CC(=O)N3C[C@@H](OC4CCC4)C[C@H]3c3ncc(CCC(=O)O)s3)cc2Cl)c2ccccc21` [Example 39, 3-[2-[1-[2,5-Dichloro-4-(1-methyl-3-indolylcarbonylamino)phenylacetyl]-(4S)-cyclobutoxy-(2S)-pyrrolidinyl]-5-thiazolyl]propionic acid] it is 6.3 nM.
Take `Cn1cc(C(=O)Nc2cc(F)c(CC(=O)N3C[C@@H](OC4CCC4)C[C@H]3c3ncc(CCC(=O)O)s3)cc2Cl)c2ccccc21` [Example 40, 3-[2-[1-[5-Chloro-2-fluoro-4-(1-methyl-3-indolylcarbonyl)aminophenylacetyl]-(4S)-cyclobutoxy-(2S)-pyrrolidinyl]-5-thiazolyl]propionic acid]: the inhibition constant Ki is 4 nM.
Consider `O=C(O)CCc1cnc([C@@H]2C[C@H](OC3CCC3)CN2C(=O)Cc2cc(Cl)c(NC(=O)c3csc4ccccc34)cc2F)s1` [Example 41], for which the inhibition constant (Ki) is 2.2 nM.
For the compound `O=C(O)CCc1cnc([C@@H]2C[C@H](OC3CCC3)CN2C(=O)Cc2cc(Cl)c(NC(=O)c3coc4ccccc34)cc2Cl)s1` [Example 42, 3-[2-[1-[4-[(1-Benzofuran-3-ylcarbonyl)amino]-2,5-dichlorophenylacetyl]-(4S)-cyclobutoxy-(2S)-pyrrolidinyl]-5-thiazolyl]propionic acid], the Ki was 7 nM.
The figure for `O=C(O)CCc1cnc([C@@H]2C[C@H](OC3CCC3)CN2C(=O)Cc2cc(Cl)c(NC(=O)c3coc4ccccc34)cc2F)s1` [Example 43, 3-[2-[1-[4-[(1-Benzofuran-3-ylcarbonyl)amino]-5-chloro-2-fluorophenylacetyl]-(4S)-cyclobutoxy-(2S)-pyrrolidinyl]-5-thiazolyl]propionic acid] is 2.9 nM.
The figure for `Cn1cc(C(=O)Nc2cc(Cl)c(CC(=O)N3C[C@@H](Oc4cccnc4)C[C@H]3c3ncc(CCC(=O)O)s3)cc2Cl)c2ccccc21` [Example 44, 3-[2-[1-[2,5-Dichloro-4-(1-methyl-3-indolylcarbonylamino)phenylacetyl]-(4S)-(3-pyridyloxy)-(2S)-pyrrolidinyl]-5-thiazolyl]propionic acid] is 3.9 nM.
In the case of `CCOC[C@@H]1CC[C@@H](c2ncc(CCC(=O)O)s2)N1C(=O)Cc1cc(Cl)c(NC(=O)c2cn(C)c3ccccc23)cc1Cl` [Example 48, 3-[2-[1-[2,5-Dichloro-4-(1-methyl-3-indolylcarbonylamino)phenylacetyl]-(5S)-ethoxymethyl-(2S)-pyrrolidinyl]-5-thiazolyl]propionic acid], the inhibition constant (Ki) was 36 nM.
The same measure for `CCOC[C@@H]1CC[C@@H](c2ncc(CCC(=O)O)s2)N1C(=O)Cc1cc(Cl)c(NC(=O)c2csc3ccccc23)cc1F` [Example 49, 3-[2-[1-[4-[(3-Benzo[b]thienylcarbonyl)amino]-5-chloro-2-fluorophenylacetyl]-(5S)-ethoxymethyl-(2S)-pyrrolidinyl]-5-thiazolyl]propionic acid]: 22 nM; for `CCOC[C@@H]1CC[C@@H](c2ncc(CCC(=O)O)s2)N1C(=O)Cc1cc(Cl)c(NC(=O)c2coc3ccccc23)cc1F` [Example 50, 3-[2-[1-[4-[(1-Benzofuran-3-ylcarbonyl)amino]-5-chloro-2-fluorophenylacetyl]-(5S)-ethoxymethyl-2(2S)-pyrrolidinyl)-5-thiazolyl]propionic acid]: 51 nM; for `CCOC[C@@H]1CC[C@@H](c2ncc(CCC(=O)O)s2)N1C(=O)Cc1ccc2nc(Nc3cc(F)ccc3OC)oc2c1F` [Example 52, 3-[2-[(5S)-ethoxymethyl-1-[7-fluoro-2-(5-fluoro-2-methoxyphenylamino)-6-benzoxazolylacetyl]-(2S)-pyrrolidinyl]-5-thiazolyl]propionic acid]: 34 nM.
The same measure for `COC[C@@H]1CC[C@@H](c2ncc(CCC(=O)O)s2)N1C(=O)Cc1cc(Cl)c(NC(=O)c2cn(C)c3ccccc23)cc1F` [Example 53, 3-[2-[1-[5-Chloro-2-fluoro-4-(1-methyl-3-indolylcarbonyl)aminophenylacetyl]-(5S)-methoxymethyl-(2S)-pyrrolidinyl]-5-thiazolyl]propionic acid]: 16 nM; for `COC[C@@H]1CC[C@@H](c2ncc(CCC(=O)O)s2)N1C(=O)Cc1cc(Cl)c(NC(=O)c2cn(C)c3ccccc23)cc1Cl` [Example 54, 3-[2-[1-[2,5-Dichloro-4-(1-methyl-3-indolylcarbonylamino)phenylacetyl]-(5S)-methoxymethyl-(2S)-pyrrolidinyl]-5-thiazolyl]propionic acid]: 24 nM.
`COC[C@@H]1CC[C@@H](c2ncc(CCC(=O)O)s2)N1C(=O)Cc1cc(Cl)c(NC(=O)c2csc3ccccc23)cc1F` [Example 55, 3-[2-[1-[4-[(3-Benzo[b]thienylcarbonyl)amino]-5-chloro-2-fluorophenylacetyl]-(5S)-methoxymethyl-(2S)-pyrrolidinyl]-5-thiazolyl]propionic acid]: the Ki was 17 nM.
The same measure for `COC[C@@H]1CC[C@@H](c2ncc(CCC(=O)O)s2)N1C(=O)Cc1cc(Cl)c(NC(=O)c2coc3ccccc23)cc1F` [Example 56, 3-[2-[1-[4-[(1-Benzofuran-3-ylcarbonyl)amino]-5-chloro-2-fluorophenylacetyl]-(5S)-methoxymethyl-(2S)-pyrrolidinyl]-5-thiazolyl]propionic acid]: 66 nM.

By Ki is commonly meant a measure of affinity in units of concentration, obtained from inhibition or displacement.
